Test results reported in patent US10400224B2, “Enantioselective modified esterase enzyme and method for the production thereof” (CORPORACIÓN CORPOGEN, priority 2014, dated 2019).

Columns and labels:
Type in all cases: biochemical, Acidicaldus organivorans USBA-GBX-499
modified esterase 499EST [1] = assay: Effect of organic solvents on the modified esterase; conditions: for % actividad relativa: pNPC8, 55° C., pH 9.0; for esterase activity increased to: solvent at a concentration of 15% and 30%
Procedure: (§1) The activity of the modified enzyme was determined spectrophotometrically at 405 nm in a range of temperatures between 45 and 75° C., using p-nitro phenyl of other chains C6 to C10 (Sigma-Aldrich) as substrate. One unit of esterase activity was defined as the capacity of the enzyme to release 1 μmol min^−1 of p-nitrophenol under the essay conditions. The molar absorbance coefficient was of 16.900 M^−1 cm^−1. The mixture consisted of 448 μl of the Tris-HCl 50 mM buffer at 9.0 pH that contained 50 μl of p-nitrophenyl diluted in isopropanol and 2 μl of the solution stock of the protein. All the assays were made by triplicate and the average was calculated.
(§2) The evaluation of metallic, solvent and detergent ions and inhibitors of the modified enzyme was carried out incubating the enzyme in the presence of each of them for one hour at 30° C. The evaluation established the stability of the referenced enzyme at a control for which the enzyme was in absence of the additive. The result was expressed in percentage of residual activity, being 100% the control.
Effect of organic solvents. The activity of the enzyme was evaluated in presence of different organic solvents. Two concentrations were evaluated, 15 and 30% of 1 butanol, 2 butanol, acetonitrile, acetone, 1-propanol, 2-propanol, methanol, ethanol, glycerol, dimethyl sulfoxide (DMSO), dimethyl formamide (DMF) (Table 3)

499EST = assay: Effect of inhibitors on the modified enzyme 499EST; conditions: inhibitor 5 mM; one hour at 30° C.
Procedure: as §1, §2
(§3) The effect of the detergents, sodium dodecyl sulfate (SDS), Tween 20, Tween 80, Triton X-100, were evaluated at concentrations of 1 and 5% (v/v) (Table 2). In the evaluations it was determined the effect of inhibitors such phenylmethanesulfonyl fluoride-PMSF, ethylenediaminetetraacetic acid, EDTA, 2-mercaptoethanol (2-ME), dithiothreitol (DTT), the evaluated concentration was of 5 mM.

modified esterase 499EST [2] = assay: Effect of metallic ions on the activity of the modified esterase 499EST; conditions: for Actividad relativa (%): pNPC8, 55° C., pH 9.0, control without additives = 100%
Procedure: as §1, §2
It was evaluated the effect of metallic ions on the enzyme activity. The ions evaluated were: CaCl2, FeCl3, MgCl2, CoCl2, NiCl2, ZnCl2, CuCl2 and MnCl2, the concentrations used were 1 mM and 10 mM. The effect of the ions Fe^3+ was evaluated at concentrations of 0.2 mM-10 mM, and its influence on the thermo stability between 50 and 65° C. (Table 1).

modified esterase 499EST [3] = assay: Effect of detergents on the modified esterase 499EST; conditions: for % actividad relativa: pNPC8, 55° C., pH 9.0, control without additives = 100%
Procedure: as §1, §2, §3

1-butanol
% actividad relativa (modified esterase 499EST [1]; organic solvent 15%): 1.5% | % actividad relativa (modified esterase 499EST [1]; organic solvent 30%): 0.0%

O[C@H](CS)[C@H](O)CS (racemic) [DTT, dithiothreitol]
inhibition of the enzymatic activity (499EST): totally inhibits

CCCO [1-propanol]
% actividad relativa (modified esterase 499EST [1]; organic solvent 15%): 26.8% | % actividad relativa (modified esterase 499EST [1]; organic solvent 30%): 24.81%

CCC(C)O (centres unmarked) [2-butanol]
% actividad relativa (modified esterase 499EST [1]; organic solvent 15%): 16.3% | % actividad relativa (modified esterase 499EST [1]; organic solvent 30%): 14.7%

CC(C)O [2-propanol]
% actividad relativa (modified esterase 499EST [1]; organic solvent 15%): 80.0% | % actividad relativa (modified esterase 499EST [1]; organic solvent 30%): 31.3%

CC(C)=O [Acetona, acetone]
% actividad relativa (modified esterase 499EST [1]; organic solvent 15%): 72.0% | % actividad relativa (modified esterase 499EST [1]; organic solvent 30%): 9.7%

CC#N [Acetonitrilo, acetonitrile]
% actividad relativa (modified esterase 499EST [1]; organic solvent 15%): 17.0% | % actividad relativa (modified esterase 499EST [1]; organic solvent 30%): 0.0%

[Ca+2].[Cl-].[Cl-] [Ca^2+, CaCl2]
Actividad relativa (%) (modified esterase 499EST [2]; ion 1 mM): 9% | Actividad relativa (%) (modified esterase 499EST [2]; ion 10 mM): 7% | Actividad relativa (%) (modified esterase 499EST [2]; ion 10 mM, listed as Ca^+2): highest enzyme inhibition

[Cl-].[Cl-].[Co+2] [Co^2+, CoCl2]
Actividad relativa (%) (modified esterase 499EST [2]; ion 1 mM): 74% | Actividad relativa (%) (modified esterase 499EST [2]; ion 10 mM): 23% | Actividad relativa (%) (modified esterase 499EST [2]; ion 10 mM, listed as Co^+2): highest enzyme inhibition

[Cl][Cu][Cl] [Cu^2+, CuCl2]
Actividad relativa (%) (modified esterase 499EST [2]; ion 1 mM): 16% | Actividad relativa (%) (modified esterase 499EST [2]; ion 10 mM): 0% | Actividad relativa (%) (modified esterase 499EST [2]; ion 10 mM, listed as Cu^+2): highest enzyme inhibition

CN(C)C=O [DMF, dimethyl formamide]
% actividad relativa (modified esterase 499EST [1]; organic solvent 15%): 12.4% | % actividad relativa (modified esterase 499EST [1]; organic solvent 30%): 12.4%

C[S+](C)[O-] [DMSO, dimethyl sulfoxide]
% actividad relativa (modified esterase 499EST [1]; organic solvent 15%): 180.0% | % actividad relativa (modified esterase 499EST [1]; organic solvent 30%): 200.2% | esterase activity increased to (modified esterase 499EST [1]): 200%

O=C(O)CN(CCN(CC(=O)O)CC(=O)O)CC(=O)O [EDTA, ethylenediaminetetraacetic acid]
decrease in the relative enzymatic activity (499EST): 9%

CCO [Etanol, ethanol]
% actividad relativa (modified esterase 499EST [1]; organic solvent 15%): 22% | % actividad relativa (modified esterase 499EST [1]; organic solvent 30%): 12.9%

[Cl][Fe]([Cl])[Cl] [Fe^3+, FeCl3]
Actividad relativa (%) (modified esterase 499EST [2]; ion 1 mM): 111% | Actividad relativa (%) (modified esterase 499EST [2]; ion 10 mM): 342% | increase of the specific activity of the enzyme (modified esterase 499EST [2]; ion concentration from 2 to 10 mM): up to 3 times

OCC(O)CO [Glicerol, glycerol]
% actividad relativa (modified esterase 499EST [1]; organic solvent 15%): 234.8% | % actividad relativa (modified esterase 499EST [1]; organic solvent 30%): 250.3% | esterase activity increased to (modified esterase 499EST [1]): 250%

CO [Metanol, methanol]
% actividad relativa (modified esterase 499EST [1]; organic solvent 15%): 3.0% | % actividad relativa (modified esterase 499EST [1]; organic solvent 30%): 0.0%

[Cl-].[Cl-].[Mg+2] [Mg^2+, MgCl2]
Actividad relativa (%) (modified esterase 499EST [2]; ion 1 mM): 76% | Actividad relativa (%) (modified esterase 499EST [2]; ion 10 mM): 3% | Actividad relativa (%) (modified esterase 499EST [2]; ion 10 mM, listed as Mg^+2): highest enzyme inhibition

[Cl][Mn][Cl] [Mn^2+, MnCl2]
Actividad relativa (%) (modified esterase 499EST [2]; ion 1 mM): 252% | Actividad relativa (%) (modified esterase 499EST [2]; ion 10 mM): 127%

O=S(=O)(F)Cc1ccccc1 [PMSF, phenylmethanesulfonyl fluoride]
activity detected (499EST): 80%

CCCCCCCCCCCCOS(=O)(=O)[O-].[Na+] [SDS, sodium dodecyl sulfate]
effect of detergent on lipolytic activity (modified esterase 499EST [3]; 1 and 5% (v/v)): strongly inhibits | % actividad relativa (modified esterase 499EST [3]; detergent 1%): 8% | % actividad relativa (modified esterase 499EST [3]; detergent 5%): 6%

CCCCCCCC/C=C\CCCCCCCC(=O)OCCOCC(OCCO)C1OCC(OCCO)C1OCCO (centres unmarked) [Tween 80]
% actividad relativa (modified esterase 499EST [3]; detergent 1%): 85% | % actividad relativa (modified esterase 499EST [3]; detergent 5%): 32%

[Cl-].[Cl-].[Zn+2] [Zn^2+, ZnCl2]
Actividad relativa (%) (modified esterase 499EST [2]; ion 1 mM): 190% | Actividad relativa (%) (modified esterase 499EST [2]; ion 10 mM): 21% | Actividad relativa (%) (modified esterase 499EST [2]; ion 10 mM, listed as Zn^+2): highest enzyme inhibition

OCCS [β-mercaptoethanol, 2-mercaptoethanol]
decrease in the relative enzymatic activity (499EST): 12%
